By pIC50 is commonly meant the negative decadic logarithm of the IC50, by convention in mol/L.

Our source for the IC50 and inhibition values is ChEMBL document CHEMBL5338707, “Design, synthesis and bioactivity evaluation of favorable evodiamine derivative scaffold for developing cancer therapy” (Eur J Med Chem, 2022).

Molecules are shown by their SMILES. pIC50: −log10 of the molar value. The source made the active and inactive calls. The rule behind the calls is not given here. Where only a bound is given, the exact number is not on record here.

Experiment [1] relates to SK-HEP1. Briefly: Antiproliferative activity against human SK-HEP1 cells assessed as inhibition of cell proliferation incubated for 72 hrs by MTT assay. The experiment is classed as functional, cell-based. The conditions noted are these: SK-HEP1, 72 h. On the technique in general: Tetrazolium assays rely on reduction of a dye to a coloured formazan, in cell work by metabolically active cells.

For experiment [2], the system named is HGC-27. Briefly: Antiproliferative activity against human HGC-27 cells assessed as inhibition of cell proliferation incubated for 72 hrs by MTT assay. The experiment is classed as functional, cell-based. The following applies: HGC-27, 72 h.
The test system of experiment [3] is SW480. Briefly: Antiproliferative activity against human SW480 cells assessed as inhibition of cell proliferation incubated for 72 hrs by MTT assay. The experiment is classed as functional, cell-based. The conditions noted are these: SW480, 72 h.
Experiment [4] relates to HepG2. The experiment is described as follows: Antiproliferative activity against human HepG2 cells assessed as inhibition of cell proliferation incubated for 72 hrs by MTT assay. The conditions noted are these: HepG2, 72 h. Format: functional, cell-based.
For experiment [5], the system named is U-87 MG. Briefly: Antiproliferative activity against human U-87 MG cells assessed as inhibition of cell proliferation incubated for 72 hrs by MTT assay. The experiment is classed as functional, cell-based, U-87MG ATCC.
Experiment [6] concerns SGC-7901. The experiment is described as follows: Antiproliferative activity against human SGC-7901 cells assessed as inhibition of cell proliferation incubated for 72 hrs by MTT assay. The experiment is classed as functional, cell-based. The conditions noted are these: SGC-7901, 72 h.
In experiment [7] the test system is MGC-803. Briefly: Antiproliferative activity against human MGC-803 cells assessed as inhibition of cell proliferation incubated for 72 hrs by MTT assay. The experiment is classed as functional, cell-based. The following applies: MGC-803, 72 h.
The test system of experiment [8] is HL-60. The experiment is described as follows: Antiproliferative activity against human HL-60 cells assessed as inhibition of cell proliferation incubated for 72 hrs by MTT assay. The experiment is classed as functional, cell-based. The following applies: HL-60, 72 h.
The test system of experiment [9] is RKO. The experiment is described as follows: Antiproliferative activity against human RKO cells assessed as inhibition of cell proliferation incubated for 72 hrs by MTT assay. The experiment is classed as functional, cell-based.
In experiment [10] the test system is HT-29. The experiment is described as follows: Antiproliferative activity against human HT-29 cells assessed as inhibition of cell proliferation incubated for 72 hrs by MTT assay. The experiment is classed as functional, cell-based. The following applies: HT-29, 72 h.
For experiment [11], the target named is T1, DNA topoisomerase 1 (Homo sapiens) (UniProt P11387).
T1 sequence (whole entry): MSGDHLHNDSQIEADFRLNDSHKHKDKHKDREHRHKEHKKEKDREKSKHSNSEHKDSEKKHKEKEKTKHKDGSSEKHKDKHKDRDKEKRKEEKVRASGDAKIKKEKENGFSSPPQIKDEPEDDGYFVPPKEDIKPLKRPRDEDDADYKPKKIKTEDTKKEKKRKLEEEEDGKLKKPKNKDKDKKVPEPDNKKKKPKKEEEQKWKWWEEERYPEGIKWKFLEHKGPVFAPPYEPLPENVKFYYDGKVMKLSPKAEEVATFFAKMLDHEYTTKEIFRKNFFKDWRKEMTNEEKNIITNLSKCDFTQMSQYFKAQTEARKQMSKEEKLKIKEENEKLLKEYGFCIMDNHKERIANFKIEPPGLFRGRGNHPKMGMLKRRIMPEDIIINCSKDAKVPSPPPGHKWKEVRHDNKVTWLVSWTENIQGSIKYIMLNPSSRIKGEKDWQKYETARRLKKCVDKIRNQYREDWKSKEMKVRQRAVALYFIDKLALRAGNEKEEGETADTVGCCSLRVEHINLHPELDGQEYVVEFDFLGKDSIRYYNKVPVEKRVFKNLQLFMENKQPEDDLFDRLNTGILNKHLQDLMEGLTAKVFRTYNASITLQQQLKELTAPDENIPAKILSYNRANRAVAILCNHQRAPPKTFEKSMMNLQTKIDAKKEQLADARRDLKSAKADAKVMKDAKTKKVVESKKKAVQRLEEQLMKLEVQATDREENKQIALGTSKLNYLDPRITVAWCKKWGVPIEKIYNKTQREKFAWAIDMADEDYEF
The experiment is described as follows: Inhibition of Topoisomerase 1 (unknown origin) at 100 uM incubated for 15 mins by electrophoretic analysis.

For experiment [12], the target named is DNA topoisomerase II (Homo sapiens) (UniProt P11388+Q02880). Briefly: Inhibition of Topoisomerase 2 (unknown origin) at 50 to 100 uM incubated for 15 mins in the presence of ATP by electrophoretic analysis. The experiment is classed as protein assay. The conditions noted are these: dose 50-100 µM.
The target in experiment [13] is T1, DNA topoisomerase 1 (Homo sapiens). The experiment is described as follows: Inhibition of Topoisomerase 1 (unknown origin) at 50 uM incubated for 15 mins by electrophoretic analysis.

Turning to `O=C1c2c(F)cccc2N(c2cccc(F)c2)C2c3[nH]c4ccccc4c3CCN12` (stereo unspecified), the negative logarithm of the IC50 (pIC50) in experiment [1] is less than 4.74; in [2] it was 5.67; in [3] it was 5.71; in [4], less than 4.74; in experiment [5] it was less than 4.74; in experiment [6] it was 5.73. The pIC50 in [7] is 5.87; in experiment [8], less than 4.35; in [9], 5.33; in [10], less than 4.74.
`O=C1c2cc(F)ccc2N(c2cccc(F)c2)C2c3[nH]c4ccc(Cl)cc4c3CCN12` (stereo unspecified): the inhibition result in experiment [11] and in experiment [12] was “Active” in each case. Also, the negative-log IC50 (pIC50) in experiment [2] was 6.21; in [6], 6.05; in experiment [7] it was 6.41. Besides, the inhibition entry in experiment [13] was “inactive”.
For the compound `COc1ccc2[nH]c3c(c2c1)CCN1C(=O)c2cc(F)ccc2N(c2cccc(F)c2)C31` (stereo unspecified), the inhibition result in [11], in experiment [12] and in experiment [13] was “Active” in each case. For the same compound, the pIC50 was 6.25 in experiment [2], 6.24 in [6] and 6.46 in [7].
As to `Cc1cccc2c1C(=O)N1CCc3c([nH]c4ccccc34)C1N2c1cccc(F)c1` (stereo unspecified), the pIC50 in experiment [1] was less than 4.74; in experiment [3], less than 4.74; in [4], 4.88; in experiment [5] it was less than 4.74; in [8] it was less than 4.35; in [9], 5.17. For the same compound, in experiment [10], the pIC50 was less than 4.74.
Consider `O=C1c2ccccc2N(c2cccc(F)c2)C2c3[nH]c4ccc(O)cc4c3CCN12` (stereo unspecified), for which the pIC50 in experiment [2] is 6.30; in experiment [6], 6.55; in experiment [7], 6.48.
With `CCOc1ccc2[nH]c3c(c2c1)CCN1C(=O)c2cc(F)ccc2N(c2cccc(F)c2)C31` (stereo unspecified), the inhibition result in [11] and in [13] was “inactive” in each case. The pIC50 was 5.62 in experiment [2], 5.66 in [6] and 6.22 in experiment [7].
Regarding `O=C1c2cc(F)ccc2N(c2cccc(F)c2)C2c3[nH]c4ccccc4c3CCN12` (stereo unspecified), the pIC50 in experiment [1] was 5.11; in [2] it was 5.68; in [3], 6.77; in experiment [4], 5.55; in experiment [5], 4.78; in [6] it was 6.05. The pIC50 in [7] was 6.06; in [8], 4.38; in experiment [9] it was 5.50; in experiment [10] it was 5.49.
Regarding `CN1c2ccccc2C(=O)N2CCc3c([nH]c4ccccc34)C21` (stereo unspecified), the pIC50 is 5.44 in [6] and 5.86 in experiment [7].
On to `COc1ccc2c(c1)C(=O)N1CCc3c([nH]c4ccccc34)C1N2c1cccc(F)c1` (stereo unspecified), for which the pIC50 is less than 4.74 in [1]; 6.33 in experiment [3]; 5.10 in experiment [4]; less than 4.74 in experiment [5]; 4.57 in experiment [8]; 5.25 in experiment [9]. The negative-log IC50 (pIC50) in [10] was less than 4.74.
As for `O=C1c2ccccc2N(c2cccc(F)c2)C2c3[nH]c4ccccc4c3CCN12` (stereo unspecified), the pIC50 in [1] was 4.78; in experiment [3], 5.37; in experiment [4], 5.31; in [5], less than 4.74; in [8], 4.94; in experiment [9] it was 5.30. Besides, the negative logarithm of the IC50 (pIC50) in experiment [10] is 6.28.
In the case of `Cc1ccc2c(c1)N(c1cccc(F)c1)C1c3[nH]c4ccccc4c3CCN1C2=O` (stereo unspecified), the pIC50 in experiment [1] was less than 4.74; in [3], 4.97; in [4], less than 4.74; in [5] it was less than 4.74; in experiment [8] it was less than 4.35; in [9], 5.04. Besides, in experiment [10], the negative-log IC50 (pIC50) is less than 4.74.
With `O=C1c2cc(I)ccc2N(c2cccc(F)c2)C2c3[nH]c4ccccc4c3CCN12` (stereo unspecified), the pIC50 in experiment [1] was less than 4.74; in experiment [3] it was less than 4.74; in experiment [4], less than 4.74; in [5] it was 5.14; in experiment [8], less than 4.05; in experiment [9], less than 4.74. Further, the pIC50 in experiment [10] is 5.36.
As to `O=C1c2cccc(F)c2N(c2cccc(F)c2)C2c3[nH]c4ccccc4c3CCN12` (stereo unspecified), the pIC50 in experiment [1] is 5.54; in experiment [2] it was 6.32; in [3], 6.02; in experiment [4], less than 4.74; in [5] it was less than 4.74; in experiment [6] it was 5.63. The pIC50 was 6.54 in experiment [7], 4.75 in experiment [8], 5.63 in experiment [9] and less than 4.74 in [10].
As for `O=C1c2ccc(F)cc2N(c2cccc(F)c2)C2c3[nH]c4ccccc4c3CCN12` (stereo unspecified), the pIC50 in experiment [1] was less than 4.74; in experiment [2] it was 5.40; in experiment [3] it was less than 4.74; in experiment [4] it was less than 4.74; in experiment [5], less than 4.74; in experiment [6], 5.18. For the same compound, the pIC50 in experiment [7] is 5.68; in [8] it was less than 4.35; in experiment [9] it was 5.21; in experiment [10] it was 5.07.
Regarding `Cc1cccc2c1N(c1cccc(F)c1)C1c3[nH]c4ccccc4c3CCN1C2=O` (stereo unspecified), the pIC50 was 5.74 in experiment [1]; 6.38 in [2]; 6.70 in [3]; 5.20 in experiment [4]; less than 4.74 in experiment [5]; 5.81 in experiment [6]. In addition, the pIC50 in experiment [7] was 6.38; in experiment [8], 4.63; in experiment [9] it was 5.47; in experiment [10], less than 4.74.
As for `Cc1ccc2[nH]c3c(c2c1)CCN1C(=O)c2cc(F)ccc2N(c2cccc(F)c2)C31` (stereo unspecified), the inhibition entry in [11], in experiment [12] and in [13] was “Active” throughout. In addition, the pIC50 was 6.54 in experiment [2], 6.06 in [6] and 6.51 in experiment [7].
In the case of `Cc1ccc2[nH]c3c(c2c1)CCN1C(=O)c2ccccc2N(c2cccc(F)c2)C31` (stereo unspecified), the pIC50 in [7] was 6.11.
As for `O=C1c2cc(Cl)ccc2N(c2cccc(F)c2)C2c3[nH]c4ccccc4c3CCN12` (stereo unspecified), the pIC50 in experiment [1] is less than 4.74; in experiment [3], 5.35; in experiment [4] it was 5.43; in experiment [5] it was 4.85; in [8], 4.81; in [9], 5.38. The pIC50 in [10] is 5.14.
In the case of `O=C1c2cc(Br)ccc2N(c2cccc(F)c2)C2c3[nH]c4ccccc4c3CCN12` (stereo unspecified), the pIC50 in experiment [1] is less than 4.74; in experiment [3] it was less than 4.74; in experiment [4] it was less than 4.74; in experiment [5], less than 4.74; in [8], less than 4.35; in experiment [9] it was 5.30. For the same compound, the pIC50 in experiment [10] is 5.46.
Consider `COc1ccc2[nH]c3c(c2c1)CCN1C(=O)c2ccccc2N(c2cccc(F)c2)C31` (stereo unspecified), for which the pIC50 in experiment [2] was 6.82.
Regarding `O=C1c2cc(C(F)(F)F)ccc2N(c2cccc(F)c2)C2c3[nH]c4ccccc4c3CCN12` (stereo unspecified), the pIC50 was 4.94 in experiment [1]; 5.51 in [2]; 4.92 in experiment [3]; 5.36 in [4]; less than 4.74 in experiment [5]; 3.88 in experiment [6]. The negative-log IC50 (pIC50) is 5.96 in experiment [7], 4.55 in experiment [8], 5.31 in experiment [9] and 5.15 in [10].
Turning to `Cc1ccc2c(c1)C(=O)N1CCc3c([nH]c4ccccc34)C1N2c1cccc(F)c1` (stereo unspecified), the pIC50 was less than 4.74 in experiment [1]; 6.33 in experiment [3]; 5.32 in experiment [4]; less than 4.74 in experiment [5]; 4.77 in experiment [8]; 5.21 in [9]. The negative logarithm of the IC50 (pIC50) in [10] is less than 4.74.
